From patent publication US20180169045A1, “AMINO ACID COMPOSITIONS AND METHODS FOR THE TREATMENT OF LIVER DISEASES” (AXCELLA HEALTH INC., priority 2016, published 2018)

Key:
[1] = test system: Primary human hepatic stellate cells; assay: TNFα-induced IL-6 secretion in primary human hepatic stellate cells (ELISA); assay type: cell-based; details: for IL-6 cytokine secretion, in words: primary human hepatic stellate cells from two donors, 3 ng/mL TNFα, 12 h
Method: Primary human hepatic stellate cells were obtained from Samsara Sciences based on the following criteria for selecting donors: adult age (between 18 and 50 years), normal BMI (>18.5 and <25), and absence of confounding liver disease. Primary human hepatic stellate cells grown in Complete HSC Medium to ˜80% confluence in T75 or T150 flasks below passage 10 were seeded into sterile, collagen I coated, 96-well optical plastic microplates (ThermoScientific, 152036) at 4000 cells per well ([…]) and incubated for 6 hours at 37° C., 5% CO2 in a humidified incubator.
After 6 hours, plates were removed from the incubator and the medium gently pipetted off and washed once with 150 μL per well DPBS. The DPBS was removed and the pretreatment medium (±single amino acid dropout, 1×HMDB DMEM+3% dialyzed FBS+0.2% Primocin, ±supplemental amino acid dose; see experiment for medium composition) was applied to the cells at 150 μL per well. Plates were returned to the incubator overnight, ˜14-15 hours.
After overnight pretreatment, the medium was removed from the cells, and the same pretreatment medium, now supplemented with 3 ng/mL TNFα is applied. Each plate contained 3 ng/mL TNFα in 1× human plasma amino acid (HMDB or PAA) concentration medium, 0 ng/mL in 1×HMDB, and 3 ng/mL TNFα+50 nM Bengamide in 1×HMDB to serve as controls. Plates were incubated for 12 hours at 37° C., 5% CO2.
After 12 hour stimulus with TNFα, supernatant was removed and frozen at −80° C. in two separate aliquots. Plates were washed gently once with DPBS and 100 μL per well of 1×HMDB DMEM+3% dialyzed FBS+0.2% Primocin+10% CCK-8 viability reagent (Dojindo). Plates were incubated for 1 hour at 37° C., 5% CO2.
After 1 hour of incubation, viability was measured on the Synergy plate reader (Absorbance at 977 (test), 900 (reference), and 450 (CCK8) nm). Immediately, the medium was removed and the plates were fixed with 70 μL per well 4% paraformaldehyde in PBS at room temperature for 20 minutes, followed by two 150 μL PBS washes, and stored with 100 μL per well PBS at 4° C. until immunofluorescence staining.
Human CCL2/MCP1 and Human IL-6 were measured by ELISA (Human […] DuoSet ELISA, R&D Systems; Human IL-6 DuoSet ELISA, R&D Systems) at 1/5 and 1/20 dilution in 1× Reagent Diluent (Reagent Ancillary Kit 2, R&D Systems). Data were normalized to the specific per well cell density determined by Hoechst stained nuclei count.

[2] = test system: human primary hepatocytes; assay: MCP1/CCL2 secretion in primary human hepatocytes exposed to free fatty acids + TNFα (ELISA); assay type: cell-based; details: primary human hepatocytes from two healthy donors, 24 h
Method: Hepatocyte lipotoxicity appears to be a central driver of hepatic cellular injury via oxidative stress and endoplasmic reticulum (ER) stress. The ability of amino acids to influence steatosis (lipid accumulation) and inflammation in hepatocytes was assessed using human primary hepatocytes (Lonza, TRL).
Primary hepatocytes lot nos. from two healthy human donors were seeded on day 0 at density of 6e04 cells in 96 well optical microplates (Thermofisher) in hepatocyte plating media (William's E medium (Gibco) supplemented with 10% heat-inactivated FBS (Atlanta Bio), 2 mM Glutamax (Gibco), 1×ITS plus (R&D systems), and 0.2% Primocin (InVivoGen) and incubated for 6 hours at 37° C., 5% CO2. After 6 hours, cells were washed twice with 150 ul William's E medium and incubated overnight at 37° C., 5% CO2 with serum-free hepatocytes culture media (Hepatocytes defined medium (Corning)) supplemented with 5 ug human recombinant EGF (Corning), 2 mM Glutamax (Gibco), and 1× Penicillin/Streptomycin. On day 1, cells were washed twice with 150 μL per well William's E medium (Gibco) and incubated for 24h in the hepatocyte culture media in the same conditions described above.
On day 2, cells were washed twice with 150 ul DPBS 1× (Gibco) and maintained in amino acid-free WEM (US Biologicals) containing a defined custom amino acid concentration based on the mean physiological concentrations in blood. The values are published in the Human Metabolome Database (Wishart D S, Tzur D, Knox C, et al., HMDB: the Human Metabolome Database. Nucleic Acids Res. 2007 January; 35(Database issue):D521-6. 17202168; which is hereby incorporated by reference in its entirety). This custom media is supplemented with 11 mM Glucose, 0.272 mM Sodium Pyruvate, and a dose curve of defined amino acid compositions (i.e., vehicle, LIVRQ+N-acetylcysteine, LIVRQ, RQ+N-acetylcysteine, N-acetylcysteine alone, LIV, or individually with L-Leucine, L-Isoleucine, L-Valine, L-Arginine, L-Glutamine, and L-Cysteine) at various ranges of concentrations. Cells were maintained in this defined media for 24 hours at 37° C., 5% CO2.
After pre-treatment, cells were exposed to free fatty acids (FFA) at 250 uM with a ratio of 2:1 (Oleate:Palmitate) supplemented with TNF-α (Thermofisher) at 1 ng/ml or vehicle. Cells were incubated with the FFAs mixture and the different amino acids combinations for 24 hours at 37° C., 5% CO2. After 24 hours incubation, media was removed for cytokine analysis and replaced by fresh media containing the same stimulus conditions and amino acid concentrations. Cells were incubated for an additional 48 hours for a total of 72 hours of FFA and TNFα stimulation.
Human CCL2 (MCP-1) was measured by ELISA (Human […] DuoSet ELISA, R&D Systems) at 1/5 or 1/10 dilution in 1× Reagent Diluent (Reagent Ancillary Kit 2, R&D Systems). Data were normalized to the specific per well cell density determined by nuclei count stained by Hoechst 3342 (Life technologies) in the fluorescence microscopy described below.

CC(C)[C@H](N)C(=O)O [Valine, L-Valine]
Fold Change IL-6 Secretion Normalized Per Cell, Mean ([1]; donor 1, Conc. 4684 μM): 0.9790
Fold Change IL-6 Secretion Normalized Per Cell, Mean ([1]; donor 1, Conc. 11710 μM): 0.9562
Fold Change IL-6 Secretion Normalized Per Cell, Mean ([1]; donor 1, Conc. 23420 μM): 1.0404
Fold Change IL-6 Secretion Normalized Per Cell, Mean ([1]; donor 2, Conc. 4684 μM): 1.0383
Fold Change IL-6 Secretion Normalized Per Cell, Mean ([1]; donor 2, Conc. 11710 μM): 0.9218
Fold Change IL-6 Secretion Normalized Per Cell, Mean ([1]; donor 2, Conc. 23420 μM): 0.9015
IL-6 cytokine secretion, in words [1]: no significant effect
MCP1/CCL2 secretion, in words [2]: did not have an effect

N=C(N)NCCC[C@H](N)C(=O)O [Arginine, L-Arginine]
IL-6 cytokine secretion, in words [1]: no significant effect
MCP1/CCL2 secretion, in words [2]: increased

NC(=O)CC[C@H](N)C(=O)O [Glutamine, L-Glutamine]
Fold Change IL-6 Secretion Normalized Per Cell, Mean ([1]; donor 1, Conc. 749 μM): 0.6320
Fold Change IL-6 Secretion Normalized Per Cell, Mean ([1]; donor 1, Conc. 3747 μM): 0.5460
Fold Change IL-6 Secretion Normalized Per Cell, Mean ([1]; donor 1, Conc. 11242 μM): 0.5136
Fold Change IL-6 Secretion Normalized Per Cell, Mean ([1]; donor 1, Conc. 22484 μM): 0.5138
Fold Change IL-6 Secretion Normalized Per Cell, Mean ([1]; donor 2, Conc. 749 μM): 0.7673
Fold Change IL-6 Secretion Normalized Per Cell, Mean ([1]; donor 2, Conc. 11242 μM): 0.6478
Fold Change IL-6 Secretion Normalized Per Cell, Mean ([1]; donor 2, Conc. 22484 μM): 0.5993
IL-6 cytokine secretion, in words [1]: significantly reduced IL-6 secretion in both donors
MCP1/CCL2 secretion, in words [2]: significantly decrease

CC(C)C[C@H](N)C(=O)O [Leucine, L-Leucine]
Fold Change IL-6 Secretion Normalized Per Cell, Mean ([1]; donor 1, Conc. 3054 μM): 1.1762
Fold Change IL-6 Secretion Normalized Per Cell, Mean ([1]; donor 1, Conc. 7635 μM): 1.1215
Fold Change IL-6 Secretion Normalized Per Cell, Mean ([1]; donor 1, Conc. 15270 μM): 1.0767
Fold Change IL-6 Secretion Normalized Per Cell, Mean ([1]; donor 2, Conc. 3054 μM): 1.0011
Fold Change IL-6 Secretion Normalized Per Cell, Mean ([1]; donor 2, Conc. 7635 μM): 0.9574
Fold Change IL-6 Secretion Normalized Per Cell, Mean ([1]; donor 2, Conc. 15270 μM): 1.0183
IL-6 cytokine secretion, in words [1]: no significant effect
MCP1/CCL2 secretion, in words [2]: did not have an effect

CC(=O)N[C@@H](CS)C(=O)O [N-acetylcysteine]
Fold Change IL-6 Secretion Normalized Per Cell, Mean ([1]; donor 1, Conc. 1000 μM): 0.7141
Fold Change IL-6 Secretion Normalized Per Cell, Mean ([1]; donor 1, Conc. 2500 μM): 0.7354
Fold Change IL-6 Secretion Normalized Per Cell, Mean ([1]; donor 1, Conc. 5000 μM): 0.6121
Fold Change IL-6 Secretion Normalized Per Cell, Mean ([1]; donor 1, Conc. 10000 μM): 0.5716
Fold Change IL-6 Secretion Normalized Per Cell, Mean ([1]; donor 1, Conc. 5 X): 0.7141
Fold Change IL-6 Secretion Normalized Per Cell, Mean ([1]; donor 1, Conc. 10 X): 0.7354
Fold Change IL-6 Secretion Normalized Per Cell, Mean ([1]; donor 1, Conc. 20 X): 0.6121
Fold Change IL-6 Secretion Normalized Per Cell, Mean ([1]; donor 1, Conc. 40 X): 0.5716
Fold Change IL-6 Secretion Normalized Per Cell, Mean ([1]; donor 2, Conc. 1000 μM): 0.9161
Fold Change IL-6 Secretion Normalized Per Cell, Mean ([1]; donor 2, Conc. 2500 μM): 0.9180
Fold Change IL-6 Secretion Normalized Per Cell, Mean ([1]; donor 2, Conc. 5000 μM): 0.8111
Fold Change IL-6 Secretion Normalized Per Cell, Mean ([1]; donor 2, Conc. 10000 μM): 0.7064
Fold Change IL-6 Secretion Normalized Per Cell, Mean ([1]; donor 2, Conc. 5 X): 0.9161
Fold Change IL-6 Secretion Normalized Per Cell, Mean ([1]; donor 2, Conc. 10 X): 0.9180
Fold Change IL-6 Secretion Normalized Per Cell, Mean ([1]; donor 2, Conc. 20 X): 0.8111
Fold Change IL-6 Secretion Normalized Per Cell, Mean ([1]; donor 2, Conc. 40 X): 0.7064
IL-6 cytokine secretion, in words [1]: reduced IL-6 secretion in both donors but was only statistically significant in one of two donors
MCP1/CCL2 secretion, in words [2]: significantly decrease

CC[C@H](C)[C@H](N)C(=O)O [Isoleucine, L-Isoleucine]
Fold Change IL-6 Secretion Normalized Per Cell, Mean ([1]; donor 1, Conc. 1328 μM): 1.0233
Fold Change IL-6 Secretion Normalized Per Cell, Mean ([1]; donor 1, Conc. 3320 μM): 1.1156
Fold Change IL-6 Secretion Normalized Per Cell, Mean ([1]; donor 1, Conc. 6639 μM): 1.0859
Fold Change IL-6 Secretion Normalized Per Cell, Mean ([1]; donor 2, Conc. 1328 μM): 1.1020
Fold Change IL-6 Secretion Normalized Per Cell, Mean ([1]; donor 2, Conc. 3320 μM): 0.9096
Fold Change IL-6 Secretion Normalized Per Cell, Mean ([1]; donor 2, Conc. 6639 μM): 1.1648
IL-6 cytokine secretion, in words [1]: no significant effect
MCP1/CCL2 secretion, in words [2]: did not have an effect
